Data from paper PMC10987480, “Biological and mutational analyses of CXCR4–antagonist interactions and design of new antagonistic analogs” (Bioscience Reports, 2023).

Columns and labels:
CXCR4 R30A = target: T1, CXCR4 R30A (Homo sapiens, UniProt P61073, R30A); test: Competitive binding to CXCR4 mutant R30A (12G5, CHO cells); parameters: key to the marks not given beside the values; conditions: TM1, class of reduction vs wild-type CXCR4, 12G5 competition, averages of at least three independent experiments
T1 construct: expressed in transfected cells
Procedure: (§1) Plasmid pcDNA3-CXCR4 and mutated pcDNA3-CXCR4 were extracted and transfected into CHO cells using Lipofectamine 2000 according to the manufacturer’s guidelines. The selective medium containing G418 at a concentration of 1.2 mg/ml was applied to isolate stably transfected cells. CHO cells expressing wild-type CXCR4 and mutant CXCR4 were obtained using fluorescence-activated cell sorting (FACS).
(§2) All of the CXCR4 mutants were prepared using PCR technology. Briefly, pairs of asymmetrical primers containing the desired amino acid mutations (Supplementary Tables S1 and S2), each complementary to opposite strands of the pcDNA3–CXCR4, were designed for amplification by Q5® High-Fidelity DNA polymerase and the generation of mutated constructs. The methylated pcDNA3–CXCR4 templates were digested by DpnI. The mutated pcDNA3–CXCR4 was transformed into competent E. coli TOP10 for long-term storage and amplification.
(§3) The procedure for the CXCR4 competitive binding experiments was published previously. Briefly, CXCR4 antibody 12G5 (250 ng/ml) was incubated with 5 × 10^5 cells and varying concentrations of unlabeled compounds in a final volume of 100 μl of assay buffer (PBS with 0.5% BSA and 0.05% NaN3) in 96-well plates for 40 min on ice, after being washed with assay buffer once. The cells were incubated with FITC-conjugated second antibody IgG for 30 min on ice, then washed with assay buffer three times. The fluorescence intensity was measured for excitation at 485 nm and emission at 535 nm using multimode plate reader (PerkinElmer). The IC50 values were calculated using graphpad Prism 7. Experiments were performed at least three times.

CXCR4 Y45A = target: T2, CXCR4 Y45A (Homo sapiens, UniProt P61073, Y45A); test: Competitive binding to CXCR4 mutant Y45A (12G5, CHO cells); conditions: TM1, class of reduction vs wild-type CXCR4, 12G5 competition, averages of at least three independent experiments
T2 construct: expressed in transfected cells
Procedure: as §1, §2, §3

CXCR4 V112A = target: T3, CXCR4 V112A (Homo sapiens, UniProt P61073, V112A); test: Competitive binding to CXCR4 mutant V112A (12G5, CHO cells); conditions: TM3, class of reduction vs wild-type CXCR4, 12G5 competition, averages of at least three independent experiments
T3 construct: expressed in transfected cells
Procedure: as §1, §2, §3

CXCR4 H113A = target: T4, CXCR4 H113A (Homo sapiens, UniProt P61073, H113A); test: Competitive binding to CXCR4 mutant H113A (12G5, CHO cells); conditions: TM3, class of reduction vs wild-type CXCR4, 12G5 competition, averages of at least three independent experiments
T4 construct: expressed in transfected cells
Procedure: as §1, §2, §3

CXCR4 W161A = target: T5, CXCR4 W161A (Homo sapiens, UniProt P61073, W161A); test: Competitive binding to CXCR4 mutant W161A (12G5, CHO cells); conditions: TM4, class of reduction vs wild-type CXCR4, 12G5 competition, averages of at least three independent experiments
T5 construct: expressed in transfected cells
Procedure: as §1, §2, §3

CXCR4 D193A = target: T6, CXCR4 D193A (Homo sapiens, UniProt P61073, D193A); test: Competitive binding to CXCR4 mutant D193A (12G5, CHO cells); conditions: TM4, class of reduction vs wild-type CXCR4, 12G5 competition, averages of at least three independent experiments
T6 construct: expressed in transfected cells
Procedure: as §1, §2, §3

CXCR4 W195A = target: T7, CXCR4 W195A (Homo sapiens, UniProt P61073, W195A); test: Competitive binding to CXCR4 mutant W195A (12G5, CHO cells); conditions: TM4, class of reduction vs wild-type CXCR4, 12G5 competition, averages of at least three independent experiments
T7 construct: expressed in transfected cells
Procedure: as §1, §2, §3

CXCR4 H203A = target: T8, CXCR4 H203A (Homo sapiens, UniProt P61073, H203A); test: Competitive binding to CXCR4 mutant H203A (12G5, CHO cells); conditions: TM5, class of reduction vs wild-type CXCR4, 12G5 competition, averages of at least three independent experiments
T8 construct: expressed in transfected cells
Procedure: as §1, §2, §3

CXCR4 H281A = target: T9, CXCR4 H281A (Homo sapiens, UniProt P61073, H281A); test: Competitive binding to CXCR4 mutant H281A (12G5, CHO cells); conditions: TM7, class of reduction vs wild-type CXCR4, 12G5 competition, averages of at least three independent experiments
T9 construct: expressed in transfected cells
Procedure: as §1, §2, §3

CXCR4 I284A = target: T10, CXCR4 I284A (Homo sapiens, UniProt P61073, I284A); test: Competitive binding to CXCR4 mutant I284A (12G5, CHO cells); conditions: TM7, class of reduction vs wild-type CXCR4, 12G5 competition, averages of at least three independent experiments
T10 construct: expressed in transfected cells
Procedure: as §1, §2, §3

CXCR4 [1] = target: T11, CXCR4 (Homo sapiens, UniProt P61073); test: SDF-1α-induced cell migration assay in SupT1 cells (transwell); format: cell-based; parameters: host or cells: SupT1 cells; conditions: SUP-T1, at 200 nM, 2 nM SDF-1α, 30 min pre-incubation, 3 h migration
Procedure: Figure 2 The inhibitory effect of the antagonists on SDF-1α-induced cell chemotaxis and calcium mobilization in SupT1 cells The antagonists and concentrations used were labeled in each lane. (A) The inhibition of cell migration by the noted antagonists. SupT1 cells pre-treated with or without CXCR4 antagonists were seeded in the upper well and cell migrated by 2 nM SDF-1α. Migrated cells without SDF-1α were used as a negative (0%) and migrated cell induced by SDF-1α as a positive control (100%). […] SupT1 cells were treated with or without CXCR4 antagonists and activated by 50 nM SDF-1α. To directly compare the inhibitory effect of the antagonists on calcium mobilization, the vehicle background and baseline were removed using GraphPad and Origin. The data were averages of at least three independent experiments.
SupT1 cells (2 × 10^6 cells per well in 75 μl) were collected and washed using assay buffer (RPMI 1640 supplemented with 0.5% BSA) and incubated with various concentrations of tested compounds for 30 min in the upper well of the transwell-96 well plates with 5.0 µm pore polycarbonate membrane insert (Corning, U.S.A.). Then, 200 μl assay buffer containing 2 nM SDF-1α was added to the lower well and cells were allowed to migrate for 3 h. Migrated cells were measured using celltiter-96 reagent.

CXCR4 [2] = target: T11, CXCR4; test: Competitive CXCR4 binding assay (12G5 antibody probe), wild-type CXCR4 transfected CHO cells; parameters: expressed in transfected cells; Competitive receptor binding activity, wild-type CXCR4 (WT): key to the marks not given beside the values; conditions: class relative to wild-type; 12G5 competition, stably transfected CHO cells; averages of at least three independent experiments
Procedure: The CXCR4-specific antibody, 12G5 was used as a probe for the competitive CXCR4 binding assay to evaluate the binding activity of CXCR4 antagonists.
Figure 1 Competitive CXCR4 binding curves of eleven CXCR4 antagonists The CXCR4 transfected CHO cells were incubated with different concentrations of antagonists and 250 ng/ml 12G5 antibody. The CXCR4-binding 12G5 antibody was recognized by FITC-conjugated anti-IgG second antibody. The cells treated with only second antibody were used as a negative control (0%) while cells treated with both 12G5 antibody and second antibody were used as a positive control (100%). Cells treated with CXCR4 antagonists were calculated in percentage relative to the positive and negative controls. The data were averages of at least three independent experiments and shown as mean ± standard error of the mean (S.E.M.).
as §3

T11 sequence (P61073 whole entry): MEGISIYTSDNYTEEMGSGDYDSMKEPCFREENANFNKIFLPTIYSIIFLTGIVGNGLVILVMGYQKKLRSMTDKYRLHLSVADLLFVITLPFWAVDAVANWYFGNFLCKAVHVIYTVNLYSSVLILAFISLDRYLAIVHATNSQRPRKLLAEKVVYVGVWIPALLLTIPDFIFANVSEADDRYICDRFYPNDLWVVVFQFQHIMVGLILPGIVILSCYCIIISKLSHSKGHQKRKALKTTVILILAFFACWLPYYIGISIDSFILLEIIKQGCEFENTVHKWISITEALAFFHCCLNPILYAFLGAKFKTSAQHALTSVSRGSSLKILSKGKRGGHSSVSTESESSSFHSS
T7 sequence (P61073 whole entry W195A): as the sequence (P61073 whole entry) above, with W195A counted along it
T1 sequence (P61073 whole entry R30A): as the sequence (P61073 whole entry) above, with R30A counted along it
T3 sequence (P61073 whole entry V112A): as the sequence (P61073 whole entry) above, with V112A counted along it
T6 sequence (P61073 whole entry D193A): as the sequence (P61073 whole entry) above, with D193A counted along it
T2 sequence (P61073 whole entry Y45A): as the sequence (P61073 whole entry) above, with Y45A counted along it
T10 sequence (P61073 whole entry I284A): as the sequence (P61073 whole entry) above, with I284A counted along it
T5 sequence (P61073 whole entry W161A): as the sequence (P61073 whole entry) above, with W161A counted along it
T9 sequence (P61073 whole entry H281A): as the sequence (P61073 whole entry) above, with H281A counted along it
T8 sequence (P61073 whole entry H203A): as the sequence (P61073 whole entry) above, with H203A counted along it
T4 sequence (P61073 whole entry H113A): as the sequence (P61073 whole entry) above, with H113A counted along it

SMILES | Competitive receptor binding activity, CXCR4 R30A (CXCR4 R30A) | Competitive receptor binding activity, CXCR4 Y45A (CXCR4 Y45A) | Competitive receptor binding activity, CXCR4 V112A (CXCR4 V112A) | Competitive receptor binding activity, CXCR4 H113A (CXCR4 H113A) | Competitive receptor binding activity, CXCR4 W161A (CXCR4 W161A) | Competitive receptor binding activity, CXCR4 D193A (CXCR4 D193A) | Competitive receptor binding activity, CXCR4 W195A (CXCR4 W195A) | Competitive receptor binding activity, CXCR4 H203A (CXCR4 H203A) | Competitive receptor binding activity, CXCR4 H281A (CXCR4 H281A) | Competitive receptor binding activity, CXCR4 I284A (CXCR4 I284A) | inhibition at 0.2 µM (CXCR4 [1]) | Competitive receptor binding activity, wild-type CXCR4 (WT) (CXCR4 [2])
c1cc(CN2CCCNCCNCCCNCC2)ccc1CN1CCCNCCNCCCNCC1 [AMD3100] | +++ | ++ (10–29% reduction compared with wild-type CXCR4) | +++ | ++ (10–29% reduction compared with wild-type CXCR4) | +++ | ++ (10–29% reduction compared with wild-type CXCR4) | +++ | +++ | +++ | +++ | 61% | +++
NCCCCN(Cc1nc2ccccc2[nH]1)[C@H]1CCCc2cccnc21 [AMD11070] | +++ | ++ (10–29% reduction compared with wild-type CXCR4) | +++ | + (30–60% reduction compared with wild-type CXCR4) | ++ (10–29% reduction compared with wild-type CXCR4) | +++ | ++ (10–29% reduction compared with wild-type CXCR4) | +++ | ++ (10–29% reduction compared with wild-type CXCR4) | +++ | 80% | +++
